Several values for one entry are separate records, joined by “and”; a condition that tells them apart may be missing. Identical values can stand only once.
Test system: 233499-124-R-J3-PDC complex spheroid growth
Test: Anticancer human tumor 233499-124-R-J3-PDC patient-derived colon adenocarcinoma cell line growth inhibition [AhR]
Details: for viability, T/C: stronger effect = lower value
Outline: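 Complex tumor spheroids co-cultured with HUVEC and human MSC stroma; AhR antagonists tested in combination with standard-of-care and investigational agents. Top concentration at or near clinical Cmax (else 10 microM), half-log dilutions; growth expressed as percent test/control.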

[1] = curve of first compound, second compound 0.1 µM
[2] = curve of first compound, second compound 0.316 µM
[3] = curve of first compound, second compound 1 µM
[4] = curve of first compound, second compound 3.16 µM
[5] = curve of first compound, second compound 10 µM
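Note: spheroids exposed to agents for seven days before reading.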

**Q.** For COc1ccc([C@@H](O)c2cc(-c3ncnc4cc(N5CCOCC5)ccc34)c(F)cc2Cl)nn1 + CC(CO)NC(=O)c1cc(-c2ccc(Cl)cc2)nn(-c2cnn(C)c2)c1=O, which IC50 [1] is on record?
**A.** > 10 µM

**Q.** And the IC50 [2]?
**A.** > 10 µM

**Q.** What about the IC50 [3] of the same compound?
**A.** > 10 µM

**Q.** And the IC50 [4]?
**A.** > 10 µM

**Q.** And the IC50 [5]?
**A.** > 10 µM

**Q.** What about the viability, T/C (second compound 0.1 µM, first compound 0.0316 µM) of the same compound?
**A.** 104%

**Q.** And the viability, T/C (second compound 0.1 µM, first compound 0.1 µM)?
**A.** 96%

**Q.** What about the viability, T/C (second compound 0.1 µM, first compound 0.316 µM) of the same compound?
**A.** 88.8%

**Q.** What about the viability, T/C (second compound 0.1 µM, first compound 1 µM) of the same compound?
**A.** 87%

**Q.** And the viability, T/C (second compound 0.1 µM, first compound 3.16 µM)?
**A.** 92.8%

**Q.** And the viability, T/C (second compound 0.1 µM, first compound 10 µM)?
**A.** 84.7%

**Q.** What about the viability, T/C (second compound 0.316 µM, first compound 0.0316 µM) of the same compound?
**A.** 108%

**Q.** And the viability, T/C (second compound 0.316 µM, first compound 0.1 µM)?
**A.** 99.1%

**Q.** And the viability, T/C (second compound 0.316 µM, first compound 0.316 µM)?
**A.** 89.7%

**Q.** What about the viability, T/C (second compound 0.316 µM, first compound 1 µM) of the same compound?
**A.** 83%

**Q.** And the viability, T/C (second compound 0.316 µM, first compound 3.16 µM)?
**A.** 75.6%

**Q.** And the viability, T/C (second compound 0.316 µM, first compound 10 µM)?
**A.** 75.3%

**Q.** What about the viability, T/C (second compound 1 µM, first compound 0.0316 µM) of the same compound?
**A.** 96.2%

**Q.** And the viability, T/C (second compound 1 µM, first compound 0.1 µM)?
**A.** 86.5%

**Q.** And the viability, T/C (second compound 1 µM, first compound 0.316 µM)?
**A.** 76.8%

**Q.** What about the viability, T/C (second compound 1 µM, first compound 1 µM) of the same compound?
**A.** 86.4%

**Q.** What about the viability, T/C (second compound 1 µM, first compound 3.16 µM) of the same compound?
**A.** 73.9%

**Q.** And the viability, T/C (second compound 1 µM, first compound 10 µM)?
**A.** 74.8%

**Q.** What about the viability, T/C (second compound 3.16 µM, first compound 0.0316 µM) of the same compound?
**A.** 98.3%

**Q.** And the viability, T/C (second compound 3.16 µM, first compound 0.1 µM)?
**A.** 86.3%

**Q.** What about the viability, T/C (second compound 3.16 µM, first compound 0.316 µM) of the same compound?
**A.** 84.7%

**Q.** What about the viability, T/C (second compound 3.16 µM, first compound 1 µM) of the same compound?
**A.** 88.2%

**Q.** And the viability, T/C (second compound 3.16 µM, first compound 3.16 µM)?
**A.** 69.5%

**Q.** And the viability, T/C (second compound 3.16 µM, first compound 10 µM)?
**A.** 78.2%

**Q.** And the viability, T/C (second compound 10 µM, first compound 0.0316 µM)?
**A.** 90.9%

**Q.** What about the viability, T/C (second compound 10 µM, first compound 0.1 µM) of the same compound?
**A.** 83.8%

**Q.** And the viability, T/C (second compound 10 µM, first compound 0.316 µM)?
**A.** 66.8%

**Q.** What about the viability, T/C (second compound 10 µM, first compound 1 µM) of the same compound?
**A.** 75.2%

**Q.** And the viability, T/C (second compound 10 µM, first compound 3.16 µM)?
**A.** 77%

**Q.** What about the viability, T/C (second compound 10 µM, first compound 10 µM) of the same compound?
**A.** 76.9%

**Q.** For COc1cc(Nc2ncc3c(n2)-c2ccc(Cl)cc2C(c2c(F)cccc2OC)=NC3)ccc1C(=O)O, which viability, T/C (compound 0.0316 µM) is on record?
**A.** 86.8% and 75.8% and 70.1%

**Q.** What about the viability, T/C (compound 0.1 µM) of the same compound?
**A.** 82.6% and 65.5% and 75.6%

**Q.** What about the viability, T/C (compound 0.316 µM) of the same compound?
**A.** 80.1% and 102% and 79.4%

**Q.** What about the viability, T/C (compound 1 µM) of the same compound?
**A.** 84.1% and 87.8% and 83.3%

**Q.** And the viability, T/C (compound 3.16 µM)?
**A.** 97.7% and 89.4% and 91.1%

**Q.** What about the viability, T/C (compound 10 µM) of the same compound?
**A.** 82.9% and 90.2% and 86%

**Q.** What about the IC50 (curve of compound) of the same compound?
**A.** > 10 µM

**Q.** With O=C(C=Cn1cnc(-c2cc(C(F)(F)F)cc(C(F)(F)F)c2)n1)NNc1cnccn1 + CC(CO)NC(=O)c1cc(-c2ccc(Cl)cc2)nn(-c2cnn(C)c2)c1=O as the compound, how does the IC50 [1] read?
**A.** > 3 µM

**Q.** And the IC50 [2]?
**A.** > 3 µM

**Q.** And the IC50 [3]?
**A.** > 3 µM

**Q.** And the IC50 [4]?
**A.** > 3 µM

**Q.** What about the IC50 [5] of the same compound?
**A.** 2.59 µM

**Q.** And the viability, T/C (second compound 0.1 µM, first compound 0.00949 µM)?
**A.** 92.4%

**Q.** What about the viability, T/C (second compound 0.1 µM, first compound 0.03 µM) of the same compound?
**A.** 102%

**Q.** What about the viability, T/C (second compound 0.1 µM, first compound 0.0949 µM) of the same compound?
**A.** 92.2%

**Q.** What about the viability, T/C (second compound 0.1 µM, first compound 0.3 µM) of the same compound?
**A.** 95.1%

**Q.** And the viability, T/C (second compound 0.1 µM, first compound 0.949 µM)?
**A.** 82.3%

**Q.** What about the viability, T/C (second compound 0.1 µM, first compound 3 µM) of the same compound?
**A.** 59.6%

**Q.** What about the viability, T/C (second compound 0.316 µM, first compound 0.00949 µM) of the same compound?
**A.** 93.8%

**Q.** What about the viability, T/C (second compound 0.316 µM, first compound 0.03 µM) of the same compound?
**A.** 89.6%

**Q.** And the viability, T/C (second compound 0.316 µM, first compound 0.0949 µM)?
**A.** 101%

**Q.** What about the viability, T/C (second compound 0.316 µM, first compound 0.3 µM) of the same compound?
**A.** 99.7%

**Q.** And the viability, T/C (second compound 0.316 µM, first compound 0.949 µM)?
**A.** 58.9%

**Q.** What about the viability, T/C (second compound 0.316 µM, first compound 3 µM) of the same compound?
**A.** 68.4%

**Q.** What about the viability, T/C (second compound 1 µM, first compound 0.00949 µM) of the same compound?
**A.** 79.7%

**Q.** And the viability, T/C (second compound 1 µM, first compound 0.03 µM)?
**A.** 101%

**Q.** And the viability, T/C (second compound 1 µM, first compound 0.0949 µM)?
**A.** 93.9%

**Q.** What about the viability, T/C (second compound 1 µM, first compound 0.3 µM) of the same compound?
**A.** 76.5%

**Q.** What about the viability, T/C (second compound 1 µM, first compound 0.949 µM) of the same compound?
**A.** 59.1%

**Q.** What about the viability, T/C (second compound 1 µM, first compound 3 µM) of the same compound?
**A.** 56.1%

**Q.** What about the viability, T/C (second compound 3.16 µM, first compound 0.00949 µM) of the same compound?
**A.** 91.3%

**Q.** What about the viability, T/C (second compound 3.16 µM, first compound 0.03 µM) of the same compound?
**A.** 97%

**Q.** And the viability, T/C (second compound 3.16 µM, first compound 0.0949 µM)?
**A.** 84.9%

**Q.** What about the viability, T/C (second compound 3.16 µM, first compound 0.3 µM) of the same compound?
**A.** 99%

**Q.** And the viability, T/C (second compound 3.16 µM, first compound 0.949 µM)?
**A.** 62.7%

**Q.** What about the viability, T/C (second compound 3.16 µM, first compound 3 µM) of the same compound?
**A.** 56.6%

**Q.** What about the viability, T/C (second compound 10 µM, first compound 0.00949 µM) of the same compound?
**A.** 93.1%

**Q.** What about the viability, T/C (second compound 10 µM, first compound 0.03 µM) of the same compound?
**A.** 87.2%

**Q.** What about the viability, T/C (second compound 10 µM, first compound 0.0949 µM) of the same compound?
**A.** 71.8%

**Q.** And the viability, T/C (second compound 10 µM, first compound 0.3 µM)?
**A.** 106%

**Q.** What about the viability, T/C (second compound 10 µM, first compound 0.949 µM) of the same compound?
**A.** 82%

**Q.** What about the viability, T/C (second compound 10 µM, first compound 3 µM) of the same compound?
**A.** 44.5%

**Q.** With O=C(c1cc(Cc2n[nH]c(=O)c3ccccc23)ccc1F)N1CCN(C(=O)C2CC2)CC1 as the compound, how does the viability, T/C (compound 0.0316 µM) read?
**A.** 103% and 99.9% and 91.7%

**Q.** What about the viability, T/C (compound 0.1 µM) of the same compound?
**A.** 97.6% and 103% and 104%

**Q.** What about the viability, T/C (compound 0.316 µM) of the same compound?
**A.** 97.3% and 100% and 107%

**Q.** And the viability, T/C (compound 1 µM)?
**A.** 108% and 113% and 102%

**Q.** And the viability, T/C (compound 3.16 µM)?
**A.** 108% and 92.6% and 99.9%

**Q.** What about the viability, T/C (compound 10 µM) of the same compound?
**A.** 93.2% and 85.1% and 76.2%

**Q.** And the IC50 (curve of compound)?
**A.** > 10 µM

From PubChem BioAssay AID1918993 (Molecular Pharmacology Branch, DTP, NCI, 2023)
